Patent US8178506B2, “Oligomeric compounds and compositions for use in modulation of small non-coding RNAs” (Regulus Therapeutics Inc., priority 2003, dated 2012)
“Also recorded” adds a separate entry of the source. In the oligonucleotide strings, read from the 5' end, every base follows the letter of its sugar. An asterisk marks phosphorothioate; unmarked linkages are phosphodiester. Other units and linkages are bracketed, terminal groups are in braces. A string of capitals states the bases alone. e = 2'-O-(2-methoxyethyl) (MOE); [5mC] = 5-methylcytosine; d = 2'-deoxy (DNA)

Key:
T47D cells = assay: Caspase-3 activity assay (apoptosis) in T47D cells; conditions: caspase assay, 200 nM; conclusion from Tables 9-12
[1] = test system: preadipocytes / differentiating adipocytes; assay: Adipocyte differentiation assay, markers taken together; assay type: cell-based, human; conditions: for five markers of adipocyte differentiation / 5 markers of adipocyte differentiation: differentiating adipocytes; for five markers of adipocyte differentiation: % of UTC (Table 55); for 5 markers of adipocyte differentiation: % of UTC (Table 75); for expression levels of markers of adipocyte differentiation (TG, leptin, aP2, HSL, Glut4, PPARγ): preadipocytes, 250 nM, day nine post-transfection, relative to ISIS-29848
Method: Oligomeric compounds of the invention are tested for their effects on preadipocyte differentiation. […] For the other adipocyte differentiation markers assayed, an oligomeric compound targeted to PPAR-γ, also known to inhibit adipocyte differentiation, may be used as a positive control.
Cells are transfected as described herein. […] Untreated control cells receive LIPOFECTIN™ only.
After the cells have reach confluence (approximately three days), they are exposed for an additional three days to differentiation medium (Zen-Bio, Inc., Research Triangle Park, N.C.) containing a PPAR-γ agonist, IBMX, dexamethasone, and insulin. Cells are then fed adipocyte medium (Zen-Bio, Inc.), which is replaced at 2 or 3 day intervals.
For assaying adipocyte differentiation, expression of the four hallmark genes, HSL, aP2, Glut4, and PPARγ, as well as triglyceride (TG) accumulation and leptin secretion were measured in adipocytes transfected with the uniform 2′-MOE phosphorothioate (PS) oligomeric compounds previously described. Cells are lysed on day nine post-transfection, in a guanadinium-containing buffer and total RNA is harvested. Real-time PCR is performed (Applied Biosystems, Prism 7700) on the total RNA using the following primer/probe sets for the adipocyte differentiation hallmark genes: (aP2): forward 5′-GGTGGTGGAATGCGTCATG-3′ (SEQ ID NO: 746), reverse 5′-[…]-3′ (SEQ ID NO: 747), probe 5′-FAM-[…]-TAMRA-3′ (SEQ ID NO: 748); (Glut4): forward 5′-GGCCTCCGCAGGTTCTG-3′ (SEQ ID NO: 749), reverse 5′-[…]-3′ (SEQ ID NO: 750), probe 5′-FAM-[…]-TAMRA-3′ (SEQ ID NO: 751); (HSL): forward 5′-ACCTGCGCACAATGACACA-3′ (SEQ ID NO: 752), reverse 5′-[…]-3′ (SEQ ID NO: 753), probe 5′-FAM-[…]-TAMRA-3′ (SEQ ID NO: 754); (PPAR-γ): forward 5′-[…]-3′ (SEQ ID NO: 755), reverse 5′-[…]-3′ (SEQ ID NO: 756), probe 5′-FAM-[…]-TAMRA-3′ (SEQ ID NO: 757). The amount of total RNA in each sample is determined using a Ribogreen Assay (Molecular Probes, Eugene, Oreg.), and expression levels of the adipocyte differentiation hallmark genes were normalized to total RNA. Leptin protein and triglyceride levels as well as mRNA levels for each of the four adipocyte differentiation hallmark genes are expressed relative to control levels (control=treatment with ISIS-29848 (SEQ ID NO: 737)).
In some embodiments, differentiating adipocytes were treated with uniform 2′-MOE phosphorothioate oligomeric compounds according to the methods described above, and the expression of the four hallmark genes, HSL, aP2, Glut4, and PPARγ, as well as triglyceride (TG) accumulation were measured. […] Undifferentiated adipocytes were also compared as a negative control. […] The effects of TNF-α, also known to inhibit adipocyte differentiation, were also measured.

[2] = test system: BJ, B16-F10, T47D, T47Dp53 and HeLa cells; assay: Cell cycle assay (propidium iodide flow cytometry), cell line panel; assay type: cell-based; conditions: 150 nM, 72 hours (Table 29)
HeLa cells = assay: Cell cycle assay in HeLa cells; assay type: cell-based, human; conditions: for phase of the cell cycle in which cells arrest or delay: HeLa
HuVECs = assay: Endothelial tube formation assay in HuVECs; conditions: 75 nM
B16-F10 cells = assay: Cell cycle assay in B16-F10 cells; assay type: cell-based, mouse; conditions: 150 nM, 48 hours, relative to untreated control
Method: (§1) BJ cells were routinely cultured in MEM high glucose with 2 mM L-glutamine and Earle's BSS adjusted to contain 1.5 g/L sodium bicarbonate and supplemented with 10% fetal bovine serum, 0.1 mM non-essential amino acids and 1.0 mM sodium pyruvate (all media and supplements from Invitrogen Life Technologies, Carlsbad, Calif.). B16-F10 cells were routinely cultured in DMEM high glucose (Invitrogen Life Technologies, Carlsbad, Calif.) supplemented with 10% fetal bovine serum (Invitrogen Life Technologies, Carlsbad, Calif.). T47D cells were cultured in DMEM High glucose media (Invitrogen Life Technologies, Carlsbad, Calif.) supplemented with 10% fetal bovine serum. […] Cells were plated on collagen-coated 24-well plates (Falcon-Primaria #3047, BD Biosciences, Bedford, Mass.) at approximately 50,000 cells per well and allowed to attach to wells overnight.
(§2) In further studies, additional cell lines were treated with oligomeric compounds targeted against miRNAs to assess the effects of each oligomeric compound on cell cycling. BJ, B16, T47D, and HeLa cells were cultured and transfected as described above. […] T47Dp53 cells are T47D cells that have been transfected with and selected for maintenance of a plasmid that expresses a wildtype copy of the p53 gene (for example, pCMV-p53; Clontech, Palo Alto, Calif.), using standard laboratory procedures. BJ cells were treated with 200 nM of each oligomeric compound, and T47D, T47Dp53, HeLa, and B16 cells were treated with 150 nM of each oligomeric compound. The human foreskin fibroblast BJ cell line represents a non-cancer cell line, while HeLa, T47D, T47Dp53 cells and the mouse melanoma cell line B16-F10 represent cancerous cell lines. For comparison, oligomeric compounds ISIS 183891 (SEQ ID NO: 847) and ISIS 285717 ([…]; herein incorporated as SEQ ID NO: 857), both targeting the kinesin-like 1/Eg5 mRNA, involved in cell cycling, were used as positive controls. The random-mer ISIS 29848 was used as a negative control. Additionally, the oligomeric compounds ISIS Number 25690 ([…]; herein incorporated as SEQ ID NO: 858) and ISIS Number 25691 ([…]; herein incorporated as SEQ ID NO: 859), targeted to nucleotides 3051-3070 and 3085-3104, respectively, of the mRNA encoding the Drosha RNase III (GenBank Accession NM_013235.2, incorporated herein as SEQ ID NO: 860) were also tested. ISIS Number 25690 and ISIS Number 25691 are 5-10-52′-MOE gapmer compounds, 20 nucleotides in length, with phosphorothioate internucleoside linkages throughout the oligomeric compound. All cytidine residues are 5-methylcytidines. Transfections were performed using the methods described herein. Cells were prepared for flow cytometry 48-hours after oligonucleotide treatment. Results of these studies are shown in Table 35, where data are expressed as percentage of cells in each phase relative to the untreated control cells in that phase.

BJ cells = assay: Cell cycle assay in BJ cells; assay type: cell-based, human; conditions: 200 nM, 48 hours, relative to untreated control
Method: as §1, §2

PPARγ = PPARγ mRNA expression in adipocytes (real-time PCR); assay type: cell-based, human; conditions: preadipocytes, 250 nM, day nine
PEPCK-c = PEPCK-c mRNA expression in HepG2 cells; assay type: cell-based, human; conditions: HepG2, 1 nM insulin, 100 nM
[3] = HeLa cells, 150 nM oligomeric compound, 24 hours, relative to untreated control (UTC = 100)
[4] = HeLa cells, 150 nM oligomeric compound, 48 hours after treatment, relative to untreated control (UTC=100)
[5] = HeLa cells, 150 nM, 48 hours, relative to untreated control

In the case of “ISIS 328400: 5-10-5 2′-MOE gapmer PS; targets mir-196-2 pri-miRNA (eA*eG*eT*eT*e[5mC]*dA*dA*dA*dA*d[5mC]*dT*d[5mC]*dA*dA*dT*e[5mC]*e[5mC]*e[5mC]*eA*eA)”, the “apoptosis in T47D cells” value (T47D cells) is reported as “induce apoptosis” and the “five markers of adipocyte differentiation” value [1] is reported as “reduce the expression levels of all five markers of adipocyte differentiation”.
“CTACCTGCACGAACAGCACTTT (chemistry not given here) [ISIS 340348, uniform 2′-MOE PS; targets mir-93]” was tested, and the “percentage of cells with hypodiploid DNA content (subG1)” value [2] was “increased percentage of cells with hypodiploid DNA content” and the “5 markers of adipocyte differentiation” value [1] was “significantly reduce the expression levels of 3 of the 5 markers of adipocyte differentiation”.
For “AAGGGATTCCTGGGAAAACTGGAC (chemistry not given here) [ISIS 327933, uniform 2′-MOE PS; targets mir-145]”, the “percentage of cells in the G2/M phase” value [2] was “increased percentage of cells in the G2/M phase”, the “phase of the cell cycle in which cells arrest or delay” value (HeLa cells; 150 nM, 24 hours) was “G2/M-phase” and the “phase of the cell cycle in which cells arrest or delay” value (HeLa cells; 150 nM, 48 hours) was “subG1-phase”. The “expression levels of markers of adipocyte differentiation (TG, leptin, aP2, HSL, Glut4, PPARγ)” value [1] was “increase in all six markers of adipocyte differentiation”.
“AACCGATTTCAGATGGTGCTAG (anti-miR; chemistry not fully specified) [ISIS 327928, uniform 2′-MOE PS; targets mir-29a-1]” was tested, and the tube formation (HuVECs) was “suppressed tube formation” and the “five markers of adipocyte differentiation” value [1] was “reduce the expression levels of all five markers of adipocyte differentiation”.
With “345395 (AAGGGATTCCTGGGAAAACTGGAC; sugars from the 5' end e5 d10 e9, all phosphorothioate, methylation of C not given here) [compound 345395]” the “% cells in cell cycle phase G1” value (B16-F10 cells) was 106%, the “% cells in cell cycle phase G2/M” value (B16-F10 cells) was 115% and the “% cells in cell cycle phase S” value (B16-F10 cells) was 87%. For the same substance, the “% cells in cell cycle phase aneuploid” value (B16-F10 cells) was 150%, the “% cells in cell cycle phase subG1” value (B16-F10 cells) was 147% and the “% cells in cell cycle phase G1” value (BJ cells) was 100%. The “% cells in cell cycle phase G2/M” value (BJ cells) was 104%, the “% cells in cell cycle phase S” value (BJ cells) was 97% and the “% cells in cell cycle phase aneuploid” value (BJ cells) was 115%. For the same substance, the “% cells in cell cycle phase subG1” value (BJ cells) was 132%, the “% cells aneuploid” value (HeLa cells; [3]) was 77% and the “% cells in cell cycle phase G1” value (HeLa cells; [3]) was 54%. The “% cells in cell cycle phase G2/M” value (HeLa cells; [3]) was 222%, the “% cells in cell cycle phase S” value (HeLa cells; [3]) was 82% and the “% cells in cell cycle phase subG1” value (HeLa cells; [3]) was 247%. For the same substance, the “% cells in cell cycle phase: G1” value (HeLa cells; [4]) was 51%, the “% cells in cell cycle phase: G2/M” value (HeLa cells; [4]) was 157% and the “% cells in cell cycle phase: S” value (HeLa cells; [4]) was 192%. For the same substance, the “% cells in cell cycle phase: aneuploid” value (HeLa cells; [4]) was 87%, the “% cells in cell cycle phase: subG1” value (HeLa cells; [4]) was 213% and the “% cells in cell cycle phase G1” value (HeLa cells; [5]) was 108%. The “% cells in cell cycle phase G2/M” value (HeLa cells; [5]) was 95%, the “% cells in cell cycle phase S” value (HeLa cells; [5]) was 96% and the “% cells in cell cycle phase aneuploid” value (HeLa cells; [5]) was 139%. The “% cells in cell cycle phase subG1” value (HeLa cells; [5]) was 87%.
For “AACCATACAACCTACTACCTCA (chemistry not given here) [ISIS 327931, uniform 2′-MOE PS; targets let-7c]”, the “expression of PPAR-γ” value (PPARγ) was “significant increase in the expression of PPAR-γ” and the “expression levels of markers of adipocyte differentiation (TG, leptin, aP2, HSL, Glut4, PPARγ)” value [1] was “increase in four out of six markers of adipocyte differentiation; also recorded: increase in expression levels for several markers of adipocyte differentiation”.
In the case of “ISIS 346687: SEQ ID NO: 1802, targeted to mir-129-1 (antisense AGCAAGCCCAGACCGCAAAAAG; all 2'-MOE, all phosphorothioate, methylation of C not given here)”, the “5 markers of adipocyte differentiation” value [1] is reported as “significantly reduce the expression levels of 3 of the 5 markers of adipocyte differentiation”.
In the case of “ISIS 348127: SEQ ID NO: 1869, targeted to mir-27b (antisense GCAGAACUUAGCCACUGUGAA; all 2'-MOE, all phosphorothioate, methylation of C and T or U not given here)”, the “5 markers of adipocyte differentiation” value [1] is reported as “significant increases in all 5 markers of adipocyte differentiation”.
“AATCTCATTTTCATACTTGCA (anti-miR; chemistry not fully specified) [ISIS 328114, uniform 2′-MOE PS; targets hypothetical miRNA-138]” was tested, and the “reduction of PEPCK-c mRNA expression” value (PEPCK-c) was 59% and the “five markers of adipocyte differentiation” value [1] was “increase in all five markers of adipocyte differentiation”.
In the case of “ISIS 341798: SEQ ID NO: 1871, targeted to mir-123/mir-126 (antisense GCAUUAUUACUCACGGUACGA; all 2'-MOE, all phosphorothioate, methylation of C and T or U not given here)”, the “5 markers of adipocyte differentiation” value [1] is reported as “significantly reduce the expression levels of 3 of the 5 markers of adipocyte differentiation”.
For “TCCTGGATGATATCTACCTC (chemistry not fully specified) [ISIS 328677, 5-10-5 2′-MOE gapmer PS; targets hypothetical miRNA-120 pri-miRNA]”, the “five markers of adipocyte differentiation” value [1] was “reduce the expression levels of all five markers of adipocyte differentiation”.
